Measured values reported in PMC11802567, “Anti-cancer activity of synthetic gefitinib-1,2,3-triazole derivatives against Hela cells via induction of apoptosis” (Frontiers in Chemistry, 2025).
≈ marks a conversion by molar mass, not a printed value. Like-named read-outs stand apart in the source and are kept apart here.

Tests used:
Hela cells [1] = tested on: Hela cells; design: method as in Khanam et al., 2019; conditions: ref Khanam et al., 2019; cited from earlier work
Hela cells [2] = test: MTT cell viability assay, Hela cells; type: cell-based; conditions: Homo sapiens, 48 h; for viability at 10 µM: mean ± SEM (n = 3)
Hela cells [3] = test: Plate clone formation assay; type: cell-based, human; conditions: 0, 5, 10, 20 μM, dose-dependent
Procedure: (§1) To validate the impact of compound c13 on cell proliferation, plate clone formation assay was performed.
Hela cells with a density of 5 × 10^2 cells/well were seeded in 6-well plates overnight. The cells were treated with different concentrations of compounds (0, 5, 10, and 20 μM) were added and continued to be cultured at 37°C with 5% CO2. When more than 50 cell clone formations were visible, the culture medium was discharged. Then, the cells were fixed with 2 mL of 4% paraformaldehyde for 15 min and stained with 2 mL of crystal violet solution at room temperature for 15 min. A microscope was used to take photos and count the number of cell clones.

HEK293T cells = test: MTT cell viability assay, HEK293T cells; type: cell-based; conditions: Homo sapiens, HEK-293T, 48 h, tested 0-40 μM
Procedure: (§2) To define the effects of compound c13 on cancer cell proliferation, the half-maximal inhibitory concentration (IC50) of compound c13 in Hela cells was calculated. Hela cells were treated with compound c13 at different concentrations (0 μM, 1 μM, 5 μM, 10 μM, 20 μM, and 40 μM) respectively for 48 h, and the cell viability was detected using the MTT method. […]. […] In contrast, its effect on the proliferation of HEK293T and NIH3T3 cells was minimal, with both IC50 values exceeding 100 μM.
(§3) Figure S1. The effect of compound c13 on the survival rate of HEK293T, NIH3T3, and Hela cells. compound c13 (0, 10, 20, and 40 μM) was used to treat HEK293T, NIH3T3, and Hela cells for 48 hours, and the cell survival rate was detected using the MTT method (n=3).

NIH3T3 cells = test: MTT cell viability assay, NIH3T3 cells; type: cell-based; conditions: Mus musculus, 48 h, tested 0-40 μM
Procedure: as §2, §3

Hela cells [4] = test: Morphological profiles of Hela cells by microscope; type: cell-based, human; conditions: 0, 5, 10, 20 μM
Procedure: FIGURE 2 Anti-proliferative Effects of compound c13 on Hela cells. (A) Dose-dependent cytotoxicity of compound c13, assessed at concentrations ranging from 0 to 40 μM on HeLa cells. Cell viability was plotted against the logarithm of compound c13 concentrations (n = 3). (B) Morphological profiles of Hela cells were taken by microscope after treatment with compound c13 at different doses (0, 5, 10, and 20 μM) (n = 3). (C) Representative photomicrographs of plate colony formation assay data with compound c13 at different doses (0, 5, 10, and 20 μM) (n = 3).
as §1

Hela cells [5] = test: Apoptosis assay, Annexin V-FITC/PI flow cytometry; type: cell-based, human; conditions: 20 μM, 48 h
Procedure: To assess whether the anti-proliferative effects of compound c13 on Hela cells were associated with apoptosis, cell apoptosis after treatment of compound c13 was measured using Annexin V-FITC and propidium iodide (PI) staining by flow cytometer. […] Compared with the normal control group, compound c13 at 20 μM markedly raised the apoptotic ratio of Hela cells to 62.03% ± 9.48%.
Hela cells with a density of 1.5 × 10^5 cells/well were seeded in 12-well plates overnight for adhesion. The cells were treated with different concentrations of compounds (0, 5, 10, and 20 μM) for 48 h. After treatment, the cells were washed with PBS and stained with Annexin V-FITC and Propidium Iodide (PI) for 15 min in the dark. Cell apoptosis rate was detected by BD Accuri C6 Plus flow cytometry (BD Biosciences) and all analyses were performed with FlowJo software.

Hela cells [6] = test: Cell cycle analysis by flow cytometry (PI); type: cell-based, human; conditions: 48 h
Procedure: To further evaluate the effect of compound c13 on the cell cycle, the cell cycle distributions of Hela cells after treatment of compound c13 were detected by flow cytometry.
Hela cells with a density of 1.5 × 10^5 cells/well were seeded in 12-well plates overnight. Different concentrations of compounds (0, 5, 10, and 20 μM) were added to treat the cells for 48 h. After treatment, the cells were washed with PBS and then the cells were fixed with 70% ethanol at −20°C overnight. Subsequently, the cells were stained with PI staining solution containing 10 μg/mL RNAase for 30 min in the dark. The data was collected by BD Accuri C6 Plus flow cytometry (BD Biosciences). All analyses were performed with FlowJo software.

[7] = tested on: Bax, Bcl-2, caspase 9, caspase 3, PARP1 in Hela cells; test: Western blot of apoptosis-associated proteins in Hela cells; type: cell-based, human; conditions: 10 and 20 μM
From the text: To explore whether the induction of apoptosis caused by compound c13 was associated with the activation of the apoptosis-related protein, a western blot was used to detect the expression of the protein including Bax and Bcl-2. […] Furthermore, the ratio of Bax to Bcl-2 was raised after being treated with compound c13, leading to apoptosis in Hela cells.
To determine the potential function of compound c13 in the regulation of the apoptosis signaling pathway, downstream key proteins containing caspase 3, caspase 9, and PARP1 were detected by western blot. […] Besides, a corresponding increase in the levels of cleaved-caspase 3, and cleaved-PARP1 was observed (Figure 6).
Whole cell extracts were prepared by lysing cells on ice for 30 min using RIPA lysis buffer (Beyotime Biotechnology, Shanghai, China). Following centrifugation at 12, 000 g for 15 min at 4°C, the supernatants were collected. The protein content concentrations of samples were determined according to the manufacturer’s protocol for the BCA protein assay kit (Thermo Scientific, Rockford, IL, United States).
Equal amounts of protein were resolved using sodium dodecyl sulfate polyacrylamide gel electrophoresis (SDS-PAGE) and subsequently transferred to a 0.2 μm nitrocellulose membrane. The membranes underwent blocking for a minimum of 1 h in 5% skimmed milk diluted in TBST. Subsequently, the blots were incubated overnight at 4°C with primary antibodies. Primary antibodies used were include, Bcl-2 (ABclonal, Wuhan, China), Bax (Wanleibio, Shenyang, China), Caspase 9/p35/p10 antibody (Proteintech, Wuhan, China), Caspase 3/p17/p19 (Proteintech, Wuhan, China), PARP-1 (Proteintech, Wuhan, China), β-actin (Sigma-Aldrich, St Louis, MO, United States). Following incubation, the membranes were washed three times with TBST buffer and then incubated with secondary antibodies (Kangchen Biotechnology, Shanghai, China) for 1 h at room temperature. Subsequently, the blots were washed three times with TBST buffer and developed using an enhanced chemiluminescence reagent (Millipore Corporation, Bedford, MA, United States). The intensity of each protein band was quantitatively analyzed using ImageJ software.

Hela cells [8] = tested on: Hela cells; design: method as in Huang et al., 2022; conditions: 72-h treatment; ref Huang et al., 2022; read-out: IC50, cytotoxicity to Hela cells; cited from earlier work

In the case of Nc1ccc(-c2nnc(CN3CCN(C(c4ccccc4)c4ccccc4)CC3)o2)cc1 [4d, N-benzhydryl-4-((5-(4-aminophenyl)-1,3,4-oxadiazol-2-yl)methyl)piperazine], the “IC50, HeLa cells” value (Hela cells [1]) is listed as 28.13 ± 0.21 µg/mL (≈ 66.1 µM).

In the case of COc1cccc2c1C(=O)c1c(O)c3c(c(O)c1C2=O)C[C@@](O)(C(=O)CO)C[C@@H]3O[C@H]1C[C@H](N)[C@H](O)[C@H](C)O1 [Doxorubicin, reference compound], the viability at 10 µM (Hela cells [2]) is reported as 11.9 ± 1.2%.

With COc1cc2ncnc(Nc3ccc(F)c(Cl)c3)c2cc1OCCCN1CCOCC1 [Gefitinib] the viability at 10 µM (Hela cells [2]) was 75.9 ± 2.88%.

In the case of COc1cc2ncnc(Nc3cccc(-c4cn(Cc5cc(Br)cc(Br)c5)nn4)c3)c2cc1OCCCN1CCOCC1 [c13, N-(3-(1-(3,5-dibromobenzyl)-1H-1,2,3-triazol-4-yl)phenyl)-7-methoxy-6-(3-morpholinopropoxy)quinazolin-4-amine], the “Colony formation ability of Hela cells” value (Hela cells [3]) is reported as “significantly inhibited the colony formation ability”, the viability at 10 µM (Hela cells [2]) is reported as 32.6 ± 8.61% and the IC50 (Hela cells [2]; read-out: IC50 against Hela cells) is reported as 5.66 ± 0.35 µM. For the same compound, the IC50 (HEK293T cells) was over 100 µM, the IC50 (NIH3T3 cells) was over 100 µM and the “Morphological changes of Hela cells” value (Hela cells [4]) was “severe morphological changes”. For the same compound, the “Apoptotic ratio of Hela cells” value (Hela cells [5]) was 62.03% ± 9.48%, the “Proportion of the G1 phase” value (Hela cells [6]; 20 μM, printed as % of control group) was 52.05% ± 2.85% and the “Percentage of cells in the G2/M phase” value (Hela cells [6]; 10 and 20 μM) was “upregulated”. The “Level of cleaved-PARP1” value [7] was “increase”, the “Level of cleaved-caspase 3” value [7] was “increase” and the “Level of cleaved-caspase 9” value [7] was “tendency of upregulation but had no significant difference”. For the same compound, the “Protein expression of pro-apoptotic Bax” value [7] was “enhanced”, the “Protein level of anti-apoptotic Bcl-2” value [7] was “diminished” and the “Ratio of Bax to Bcl-2” value [7] was “raised”. The “Protein level of full-length PARP1” value ([7]; vs control group) was “decreased”, the “Protein level of full-length caspase 3” value ([7]; vs control group) was “decreased” and the “Protein level of full-length caspase 9” value ([7]; vs control group) was “decreased”.

For C[C@]12CC[C@@H]3c4ccc(O)cc4CC[C@H]3[C@@H]1CC[C@@H]2O [β-estradiol], the IC50 (Hela cells [8]) is given as 18.7 ± 1.57 µM.
